Where a name gives a salt, the structure may show the parent alone.
Columns and labels:
[1] = biological target: BRD4-BD1 (Homo sapiens (Human), UniProt O60885); assay: BRD4 AlphaScreen assay, BRD4-BD1; type: binding; conditions: biotin-labeled tetra-acetylated histone H4 peptide, 75 min, room temperature, read-out: BRD4 BD-1 enzyme IC50
How it was run: (§1)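 IC50 values from percent-control versus log inhibitor fits after bead-based proximity readout (streptavidin donor, GSH acceptor, 75 min dark). Reactions: 75 min RT, pH 7.4 HEPES, biotin-H4Ac4 peptide 50 nM, with BD1 at 3.8 nM (DMSO 1.25%) and BD2 at 20 nM (DMSO 0.83%).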

[2] = biological target: BRD4-BD2 (Homo sapiens (Human), UniProt O60885); assay: BRD4 AlphaScreen assay, BRD4-BD2; type: binding; conditions: biotin-labeled tetra-acetylated histone H4 peptide, 75 min, room temperature, read-out: BRD4 BD-2 enzyme IC50
How it was run: as §1

IC50 [1]	IC50 [2]	Compound
≤ 100 nM	≤ 100 nM	CCNC(=O)c1cc2c(ccc3nnc(C)n32)n1Cc1cc(Cl)cc(CN2CCCC2)c1 [Example 133, 6-[3-Chloro-5-(pyrrolidin-1-ylmethyl)benzyl]-N-ethyl-1-methyl-6H-pyrrolo[2,3-e][1,2,4]triazolo[4,3-a]pyridine-7-carboxamide bis(trifluoroacetate) Salt]
≤ 100 nM	≤ 100 nM	CNC(=O)c1cc2c(ccc3nnc(C)n32)n1Cc1cc(Cl)cc(CN2CCC(F)(F)C2)c1 [Example 134, 6-{3-Chloro-5-[(3,3-difluoropyrrolidin-1-yl)methyl]benzyl}-N,1-dimethyl-6H-pyrrolo[2,3-e][1,2,4]triazolo[4,3-a]pyridine-7-carboxamide 2.4×(trifluoroacetate) Salt]
≤ 100 nM	≤ 100 nM	CNC(=O)c1cc2c(ccc3nnc(C)n32)n1Cc1cc(Cl)cc(CN2CC(C)(C)C2)c1 [Example 135, 6-{3-Chloro-5-[(3,3-dimethylazetidin-1-yl)methyl]benzyl}-N,1-dimethyl-6H-pyrrolo[2,3-e][1,2,4]triazolo[4,3-a]pyridine-7-carboxamide bis(trifluoroacetate) Salt]
≤ 100 nM	≤ 100 nM	CNC(=O)c1cc2c(ccc3nnc(C)n32)n1Cc1cccc(C(F)(F)F)c1 [Example 136, N,1-dimethyl-6-[3-(trifluoromethyl)benzyl]-6H-pyrrolo[2,3-e][1,2,4]triazolo[4,3-a]pyridine-7-carboxamide Trifluoroacetate Salt]
≤ 100 nM	≤ 100 nM	CCNC(=O)c1cc2c(ccc3nnc(C)n32)n1Cc1cccc(C(F)(F)F)c1 [Example 137, N-Ethyl-1-methyl-6-[3-(trifluoromethyl)benzyl]-6H-pyrrolo[2,3-e][1,2,4]triazolo[4,3-a]pyridine-7-carboxamide Trifluoroacetate Salt]
100 to 1000 nM	100 to 1000 nM	Cc1nnc2ccc3c(cc(C(F)(F)F)n3Cc3ccccc3)n12 [Example 138, 6-Benzyl-1-methyl-7-(trifluoromethyl)-6H-pyrrolo[2,3-e][1,2,4]triazolo[4,3-a]pyridine Trifluoroacetate Salt]
≤ 100 nM	≤ 100 nM	CNC(=O)Nc1cc2c(cc(C)n2Cc2cc(Cl)cc(CN3CCCC3)c2)n2c(C)nnc12 [Example 142, N-{6-[3-Chloro-5-(pyrrolidin-1-ylmethyl)benzyl]-1,7-dimethyl-6H-pyrrolo[2,3-e][1,2,4]triazolo[4,3-a]pyridin-4-yl}-N′-methylurea bis(trifluoroacetate) Salt]
≤ 100 nM	≤ 100 nM	Cc1cc2c(cc(NC3CCOCC3)c3nnc(C)n32)n1Cc1ccccc1 [Example 146, 6-benzyl-1,7-dimethyl-N-(tetrahydro-2H-pyran-4-yl)-6H-pyrrolo[2,3-e][1,2,4]triazolo[4,3-a]pyridin-4-amine]
≤ 100 nM	≤ 100 nM	Cc1cc2c(cc(N[C@@H]3CCOC3)c3nnc(C)n32)n1Cc1ccccc1 [Example 147, 6-benzyl-1,7-dimethyl-N-[(3R)-tetrahydrofuran-3-yl]-6H-pyrrolo[2,3-e][1,2,4]triazolo[4,3-a]pyridin-4-amine]
≤ 100 nM	≤ 100 nM	Cc1cc2c(cc(N[C@H]3CCOC3)c3nnc(C)n32)n1Cc1ccccc1 [Example 148, 6-benzyl-1,7-dimethyl-N-[(3S)-tetrahydrofuran-3-yl]-6H-pyrrolo[2,3-e][1,2,4]triazolo[4,3-a]pyridin-4-amine]
100 to 1000 nM	≤ 100 nM	Cc1cc2c(cc(N[C@@H]3CCN(C(=O)OC(C)(C)C)C3)c3nnc(C)n32)n1Cc1ccccc1 [Example 149, tert-butyl (3R)-3-[(6-benzyl-1,7-dimethyl-6H-pyrrolo[2,3-e][1,2,4]triazolo[4,3-a]pyridin-4-yl)amino]pyrrolidine-1-carboxylate]
≤ 100 nM	≤ 100 nM	Cc1cc2c(cc(N[C@H]3CCN(C(=O)OC(C)(C)C)C3)c3nnc(C)n32)n1Cc1ccccc1 [Example 150, tert-butyl (3S)-3-[(6-benzyl-1,7-dimethyl-6H-pyrrolo[2,3-e][1,2,4]triazolo[4,3-a]pyridin-4-yl)amino]pyrrolidine-1-carboxylate]
≤ 100 nM	≤ 100 nM	Cc1cc2c(cc(N[C@@H]3CCNC3)c3nnc(C)n32)n1Cc1ccccc1 [Example 151, 6-benzyl-1,7-dimethyl-N-[(3R)-pyrrolidin-3-yl]-6H-pyrrolo[2,3-e][1,2,4]triazolo[4,3-a]pyridin-4-amine bis(trifluoroacetate) Salt]
≤ 100 nM	≤ 100 nM	Cc1cc2c(cc(N[C@H]3CCNC3)c3nnc(C)n32)n1Cc1ccccc1 [Example 152, 6-benzyl-1,7-dimethyl-N-[(3S)-pyrrolidin-3-yl]-6H-pyrrolo[2,3-e][1,2,4]triazolo[4,3-a]pyridin-4-amine bis(trifluoroacetate) Salt]
≤ 100 nM	≤ 100 nM	Cc1cc2c(cc(NC3CCN(C)CC3)c3nnc(C)n32)n1Cc1ccccn1 [Example 153, 1,7-dimethyl-N-(1-methylpiperidin-4-yl)-6-(pyridin-2-ylmethyl)-6H-pyrrolo[2,3-e][1,2,4]triazolo[4,3-a]pyridin-4-amine]
≤ 100 nM	≤ 100 nM	Cc1cc2c(cc(NC3CCN(C)CC3)c3nnc(C)n32)n1Cc1cccnc1 [Example 154, 1,7-dimethyl-N-(1-methylpiperidin-4-yl)-6-(pyridin-3-ylmethyl)-6H-pyrrolo[2,3-e][1,2,4]triazolo[4,3-a]pyridin-4-amine]
≤ 100 nM	≤ 100 nM	Cc1nnc2ccc3c(cc(-c4ccn[nH]4)n3Cc3cccc(Cl)c3)n12 [Example 155, 6-(3-chlorobenzyl)-1-methyl-7-(1H-pyrazol-5-yl)-6H-pyrrolo[2,3-e][1,2,4]triazolo[4,3-a]pyridine bis(trifluoroacetate) Salt]
≤ 100 nM	≤ 100 nM	CCN1CC(CC#N)(n2ccc(-c3cc4c(ccc5nnc(C)n54)n3Cc3cccc(Cl)c3)n2)C1 [Example 158, (3-{3-[6-(3-Chlorobenzyl)-1-methyl-6H-pyrrolo[2,3-e][1,2,4]triazolo[4,3-a]pyridin-7-yl]-1H-pyrazol-1-yl}-1-ethylazetidin-3-yl)acetonitrile bis(trifluoroacetate) Salt]
≤ 100 nM	≤ 100 nM	CCN1CC(n2ccc(-c3cc4c(ccc5nnc(C)n54)n3Cc3cccc(Cl)c3)n2)C1 [Example 160, 6-(3-Chlorobenzyl)-7-[1-(1-ethylazetidin-3-yl)-1H-pyrazol-3-yl]-1-methyl-6H-pyrrolo[2,3-e][1,2,4]triazolo[4,3-a]pyridine bis(trifluoroacetate) Salt]
≤ 100 nM	≤ 100 nM	Cc1nnc2ccc3c(cc(-c4ccn(C5CN(S(=O)(=O)N(C)C)C5)n4)n3Cc3cccc(Cl)c3)n12 [Example 161, 3-{3-[6-(3-Chlorobenzyl)-1-methyl-6H-pyrrolo[2,3-e][1,2,4]triazolo[4,3-a]pyridin-7-yl]-1H-pyrazol-1-yl}-N,N-dimethylazetidine-1-sulfonamide bis(trifluoroacetate) Salt]
≤ 100 nM	≤ 100 nM	Cc1nnc2ccc3c(cc(-c4ccn(C5CN(C(=O)CN(C)C)C5)n4)n3Cc3cccc(Cl)c3)n12 [Example 162, 2-(3-{3-[6-(3-Chlorobenzyl)-1-methyl-6H-pyrrolo[2,3-e][1,2,4]triazolo[4,3-a]pyridin-7-yl]-1H-pyrazol-1-yl}azetidin-1-yl)-N,N-dimethyl-2-oxoethanamine bis(trifluoroacetate) Salt]
≤ 100 nM	≤ 100 nM	CCC(=O)N1CC(n2ccc(-c3cc4c(ccc5nnc(C)n54)n3Cc3cccc(Cl)c3)n2)C1 [Example 163, 6-(3-Chlorobenzyl)-1-methyl-7-[1-(1-propionylazetidin-3-yl)-1H-pyrazol-3-yl]-6H-pyrrolo[2,3-e][1,2,4]triazolo[4,3-a]pyridine Trifluoroacetate Salt]
≤ 100 nM	≤ 100 nM	Cc1nnc2ccc3c(cc(-c4ccn(C5CN(C(=O)C6CC6)C5)n4)n3Cc3cccc(Cl)c3)n12 [Example 164, 6-(3-Chlorobenzyl)-7-{1-[1-(cyclopropylcarbonyl)azetidin-3-yl]-1H-pyrazol-3-yl}-1-methyl-6H-pyrrolo[2,3-e][1,2,4]triazolo[4,3-a]pyridine Trifluoroacetate Salt]
≤ 100 nM	≤ 100 nM	Cc1nnc2ccc3c(cc(-c4ccn(C5CN(S(=O)(=O)C6CC6)C5)n4)n3Cc3cccc(Cl)c3)n12 [Example 165, 6-(3-Chlorobenzyl)-7-{1-[1-(cyclopropylsulfonyl)azetidin-3-yl]-1H-pyrazol-3-yl}-1-methyl-6H-pyrrolo[2,3-e][1,2,4]triazolo[4,3-a]pyridine Trifluoroacetate Salt]
≤ 100 nM	≤ 100 nM	CCS(=O)(=O)N1CC(n2ccc(-c3cc4c(ccc5nnc(C)n54)n3Cc3cccc(Cl)c3)n2)C1 [Example 166, 6-(3-Chlorobenzyl)-7-{1-[1-(ethylsulfonyl)azetidin-3-yl]-1H-pyrazol-3-yl}-1-methyl-6H-pyrrolo[2,3-e][1,2,4]triazolo[4,3-a]pyridine Trifluoroacetate Salt]
≤ 100 nM	≤ 100 nM	CCOC(=O)N1CC(n2ccc(-c3cc4c(ccc5nnc(C)n54)n3Cc3cccc(Cl)c3)n2)C1 [Example 167, Ethyl 3-{3-[6-(3-chlorobenzyl)-1-methyl-6H-pyrrolo[2,3-e][1,2,4]triazolo[4,3-a]pyridin-7-yl]-1H-pyrazol-1-yl}azetidine-1-carboxylate Trifluoroacetate Salt]

Compound	IC50 [1]	IC50 [2]
Cc1nnc2ccc3c(cc(-c4ncco4)n3Cc3ccccc3)n12 [Example 143, 6-benzyl-1-methyl-7-(1,3-oxazol-2-yl)-6H-pyrrolo[2,3-e][1,2,4]triazolo[4,3-a]pyridine Trifluoroacetate Salt]	≤ 100 nM	≤ 100 nM

Reference: US9777003B2, “Tricyclic heterocycles as bet protein inhibitors” (Incyte Corporation, priority 2013, dated 2017)
